Assay results from PubChem BioAssay AID1963440 (Molecular Pharmacology Branch, DTP, NCI, 2024).
Where “and” joins values, the source holds several entries; their conditions need not be identical. Identical values can stand only once.

System: NCI-H1417 complex spheroids, growth % test/control
Assay: Anticancer human tumor NCI-H1417 cell line growth inhibition [Asc];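 further: spheroids exposed to compounds for 7 days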;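 on viability, T/C: 100% = DMSO vehicle control wells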
Conditions: for viability, T/C: stronger effect = lower value; active means viability on the fitted dose curve at most 10% of control; inactive means the rest
Outline: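 Complex spheroids combining tumor cells with HUVEC endothelial cells and human MSCs, at 37 degrees C, 5% CO2; agents tested alone or combined, half-log dilutions from at or near clinical Cmax, or 10 microM if Cmax unknown.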

[1] = curve of first compound, second compound 0.1 µM
[2] = curve of first compound, second compound 0.316 µM
[3] = curve of first compound, second compound 1 µM
[4] = curve of first compound, second compound 3.16 µM
[5] = curve of first compound, second compound 10 µM
[6] = second compound 0.1 µM, first compound 0.0316 µM
[7] = second compound 0.1 µM, first compound 0.1 µM
[8] = second compound 0.1 µM, first compound 0.316 µM
[9] = second compound 0.1 µM, first compound 1 µM
[10] = second compound 0.1 µM, first compound 3.16 µM
[11] = second compound 0.1 µM, first compound 10 µM
[12] = second compound 0.316 µM, first compound 0.0316 µM
[13] = second compound 0.316 µM, first compound 0.1 µM
[14] = second compound 0.316 µM, first compound 0.316 µM
[15] = second compound 0.316 µM, first compound 1 µM
[16] = second compound 0.316 µM, first compound 3.16 µM
[17] = second compound 0.316 µM, first compound 10 µM
[18] = second compound 1 µM, first compound 0.0316 µM
[19] = second compound 1 µM, first compound 0.1 µM
[20] = second compound 1 µM, first compound 0.316 µM
[21] = second compound 1 µM, first compound 1 µM
[22] = second compound 1 µM, first compound 3.16 µM
[23] = second compound 1 µM, first compound 10 µM
[24] = second compound 3.16 µM, first compound 0.0316 µM
[25] = second compound 3.16 µM, first compound 0.1 µM
[26] = second compound 3.16 µM, first compound 0.316 µM
[27] = second compound 3.16 µM, first compound 1 µM
[28] = second compound 10 µM, first compound 0.0316 µM
[29] = second compound 10 µM, first compound 0.1 µM
[30] = second compound 10 µM, first compound 0.316 µM
[31] = second compound 10 µM, first compound 1 µM

C=C(F)C(=O)N1CCN(c2nc(OCC3CCCN3C)nc3c2CCN(c2cccc4cccc(Cl)c24)C3)CC1CC#N (centres undefined) + Cc1c(S(C)(=O)=O)c(-c2cc(F)cc(N3CCN(c4ccc(NS(=O)(=O)c5ccc(NC(CCN6CCC(C(=O)OCCCP(=O)(O)O)CC6)CSc6ccccc6)c(S(=O)(=O)C(F)(F)F)c5)cc4)CC3)c2)c(-c2ccc(Cl)cc2)n1C(C)C
inactive: viability, T/C [6] 75.7% | viability, T/C [7] 80% | viability, T/C [8] 67.9% | viability, T/C [9] 61.1% | viability, T/C [12] 43.5% | viability, T/C [13] 46% | viability, T/C [14] 35.5% | viability, T/C [15] 14% | viability, T/C [18] 12.3%
< 31.6 nM: IC50 [2] | IC50 [3] | IC50 [4] | IC50 [5]
active: viability, T/C [10] 1.57% | viability, T/C [11] 0.85% | viability, T/C [16] 0.94% | viability, T/C [17] 0.12% | viability, T/C [19] 9.05% | viability, T/C [20] 5.54% | viability, T/C [21] 2.95% | viability, T/C [22] 0.15% | viability, T/C [23] 0.11% | viability, T/C [24] 2.93% | viability, T/C [25] 2.78% | viability, T/C [26] 2.82% | viability, T/C [27] 2.57% | viability, T/C (second compound 3.16 µM, first compound 3.16 µM) 0.11% | viability, T/C (second compound 3.16 µM, first compound 10 µM) 0.12% | viability, T/C [28] 2.01% | viability, T/C [29] 2.86% | viability, T/C [30] 3.34% | viability, T/C [31] 1.29% | viability, T/C (second compound 10 µM, first compound 3.16 µM) 0.21% | viability, T/C (second compound 10 µM, first compound 10 µM) 0.19%
1240 nM: IC50 [1]

C#Cc1c(F)ccc2cc(O)cc(-c3ncc4c(N5CC6CCC(C5)N6)nc(OCC56CCCN5CC(F)C6)nc4c3F)c12 (centres undefined) + CNC(C)C(=O)NC1CN(S(=O)(=O)c2cccc(S(=O)(=O)N3CCC4CCC(C(=O)NC(c5ccccc5)c5ccccc5)N4C(=O)C(NC(=O)C(C)NC)C3)c2)CCC2CCC(C(=O)NC(c3ccccc3)c3ccccc3)N2C1=O
inactive: viability, T/C (second compound 0.00316 µM, first compound 0.0316 µM) 96.1% | viability, T/C (second compound 0.00316 µM, first compound 0.1 µM) 87.6% | viability, T/C (second compound 0.00316 µM, first compound 0.316 µM) 99.3% | viability, T/C (second compound 0.00316 µM, first compound 1 µM) 95.7% | viability, T/C (second compound 0.00316 µM, first compound 3.16 µM) 81.7% | viability, T/C (second compound 0.00316 µM, first compound 10 µM) 65% | viability, T/C (second compound 0.01 µM, first compound 0.0316 µM) 98% | viability, T/C (second compound 0.01 µM, first compound 0.1 µM) 90% | viability, T/C (second compound 0.01 µM, first compound 0.316 µM) 82.2% | viability, T/C (second compound 0.01 µM, first compound 1 µM) 98.1% | viability, T/C (second compound 0.01 µM, first compound 3.16 µM) 93.2% | viability, T/C (second compound 0.01 µM, first compound 10 µM) 66.4% | viability, T/C (second compound 0.0316 µM, first compound 0.0316 µM) 101% | viability, T/C (second compound 0.0316 µM, first compound 0.1 µM) 90.6% | viability, T/C (second compound 0.0316 µM, first compound 0.316 µM) 91.1% | viability, T/C (second compound 0.0316 µM, first compound 1 µM) 98.2% | viability, T/C (second compound 0.0316 µM, first compound 3.16 µM) 88.9% | viability, T/C (second compound 0.0316 µM, first compound 10 µM) 69.3% | viability, T/C [6] 89.5% | viability, T/C [7] 91.5% | viability, T/C [8] 86% | viability, T/C [9] 97.6% | viability, T/C [10] 91.2% | viability, T/C [11] 69.8% | viability, T/C [12] 82.3% | viability, T/C [13] 80.9% | viability, T/C [14] 87.1% | viability, T/C [15] 86.7% | viability, T/C [16] 91.2% | viability, T/C [17] 64.6% | viability, T/C [18] 97.5% | viability, T/C [19] 80.9% | viability, T/C [20] 89.6% | viability, T/C [21] 84.3% | viability, T/C [22] 86.7% | viability, T/C [23] 66.8%
> 10000 nM: IC50 (curve of first compound, second compound 0.00316 µM) | IC50 (curve of first compound, second compound 0.01 µM) | IC50 (curve of first compound, second compound 0.0316 µM) | IC50 [1] | IC50 [2] | IC50 [3]

COc1c(OCCCN2CCOCC2)ccc2c3n(c(=NC(=O)c4cnc(N)nc4)nc12)CCN3 + Cc1c(S(C)(=O)=O)c(-c2cc(F)cc(N3CCN(c4ccc(NS(=O)(=O)c5ccc(NC(CCN6CCC(C(=O)OCCCP(=O)(O)O)CC6)CSc6ccccc6)c(S(=O)(=O)C(F)(F)F)c5)cc4)CC3)c2)c(-c2ccc(Cl)cc2)n1C(C)C
inactive: viability, T/C (second compound 0.1 µM, first compound 0.00316 µM) 79.6% | viability, T/C (second compound 0.1 µM, first compound 0.01 µM) 80.2% | viability, T/C [6] 60.5% | viability, T/C [7] 45.7% | viability, T/C [8] 34.8% | viability, T/C [9] 14.1% | viability, T/C (second compound 0.316 µM, first compound 0.00316 µM) 46.7% | viability, T/C (second compound 0.316 µM, first compound 0.01 µM) 43% | viability, T/C [12] 24.1% | viability, T/C [13] 12.7% | viability, T/C (second compound 1 µM, first compound 0.00316 µM) 14.9% | viability, T/C (second compound 1 µM, first compound 0.01 µM) 9.99%
< 3.16 nM: IC50 [2] | IC50 [3] | IC50 [4] | IC50 [5]
active: viability, T/C [14] 10.1% | viability, T/C [15] 3.24% | viability, T/C [18] 8.47% | viability, T/C [19] 2.77% | viability, T/C [20] 1.93% | viability, T/C [21] 0.85% | viability, T/C (second compound 3.16 µM, first compound 0.00316 µM) 2.73% | viability, T/C (second compound 3.16 µM, first compound 0.01 µM) 2.65% | viability, T/C [24] 1.29% | viability, T/C [25] 0.44% | viability, T/C [26] 0.22% | viability, T/C [27] 0.21% | viability, T/C (second compound 10 µM, first compound 0.00316 µM) 2.03% | viability, T/C (second compound 10 µM, first compound 0.01 µM) 1.93% | viability, T/C [28] 1.06% | viability, T/C [29] 0.31% | viability, T/C [30] 0.21% | viability, T/C [31] 0.23%
87.7 nM: IC50 [1]

COc1c(OCCCN2CCOCC2)ccc2c3n(c(=NC(=O)c4cnc(N)nc4)nc12)CCN3
> 1000 nM: IC50 (curve of compound)
inactive: viability, T/C (compound 0.00316 µM) 94.5% and 101% and 96.7% | viability, T/C (compound 0.01 µM) 100% and 96.2% and 99% | viability, T/C (compound 0.0316 µM) 82.9% and 83.8% and 91.8% | viability, T/C (compound 0.1 µM) 76.9% and 73.8% and 90.3% | viability, T/C (compound 0.316 µM) 69% and 70.4% and 77.1% | viability, T/C (compound 1 µM) 54.8% and 47.9% and 64%
